What was measured:
Format in all cases: cell-based
[1] = system: VEGF stimulated Phospho-ERK in HUVEC; experiment: Growth factor stimulated p-ERK assay in HUVECs (VEGF stimulation, ERK1/2 Bioplex); conditions: Homo sapiens, compound 2 hrs, then 50 ng/ml VEGF 10 min; for inhibition at 0.1 µM: @ 100 nM
Procedure: Growth Factor Stimulated p-ERK assay in HUVECs
Exponentially growing human endothelial HUVECs cells (human umbilical vein endothelial cells, cat# CC-2517, Cambrex, Walkersville, Md.) were seeded at twenty five thousand cells/well in 96 well plates in EBM-2 MV medium with growth factors (cat# CC-3202, Cambrex) and grown at 37° C. in 5% CO2. Sixteen hours post-plating, the cells were changed to serum-free medium (RPMI 1640 containing 0.1% BSA (bovine serum albumin) and compounds were added at different concentrations for 2 hrs, after which the cells were stimulated for 10 min with 50 ng/ml of either VEGF (vascular endothelial growth factor, Protein Sciences, Meriden, Conn.) or bFGF (basic fibroblast growth factor cat# PHG0026, Biosource International, Camarillo, Calif.). The rest of the assay was performed per manufacturer indications for the ERK½ Bioplex assay (cat#171-304004, Bio-Rad, Hercules, Calif.). After removing culture medium by aspiration, the cells were quickly rinsed with 100 μl of cell wash buffer A to stop treatment reaction. Eighty microliters of cell lysis buffer were then immediately added to each well of the 96 well plate which was put on ice. Cells in each well were lysed by pipetting up and down 5 times with a multi-channel pipet. The plate was then agitated on a microtiter plate shaker at 300 rpm for 20 min at 4° C. Cellular debris were pelleted by centrifugation at 4500 g for 15 min at 4° C. and the supernatant was collected. Forty five microliters of supernatant was diluted with an equal volume of Bio-Plex phosphoprotein assay Buffer B, The coupled and color coated beads were added into a 96 well filter plate, and the prepared lysates were added. The beads and lysate mixture was incubated at room temperature for 15-18 hrs. The following day, the plate was vacuum-filtered and then washed 3×. Twenty-five microliters of detection antibody solution were added to each well and the plate was then incubated for 30 min at room temperature. The plate was then vaccum-filtered and washed as described previously. Fifty microliters of streptavidin-PE solution was added to each well, the plate was incubated for 10 min at room temperature and then was then vaccum-filtered and washed as described above. One hundred twenty-five microliters of resuspension buffer was added to each well and data were acquired on the Luminex 100 instrument (Bio-Rad).

MDA-MB-231 cells = experiment: Tumor cell proliferation (Alamar Blue), MDA-MB-231; conditions: Homo sapiens, MDA-MB-231, 72 h
Procedure: (§1) Human tumor cells (e.g., HCT116 or MDA-MB-231 cells), are seeded in a Costar 96-well plate at 3.0×10^3 cells/well and grown in 150 μl of RPMI complete media (Invitrogen Corporation, Grand Island, N.Y.) containing 10% fetal bovine serum (Hyclone, Logan, Utah) at 37° C. for 16 h in an incubator with 5% CO2. To each well, 50 μl of additional growth media containing 40 μM to 18 nM concentrations of compound with 0.4% DMSO is added. Cells are grown for another 72 h at 37° C. with 5% CO2. 20 μl of Alamar Blue (Trek Diagnostic Systems, Inc., Cleveland, Ohio) reagent is added to each well and incubated for 3 h at 37° C. Plates are read in a SpectraMax Gemini (Molecular Devices, Calif.) with 544 nm excitation and 590 nm emission wavelength. IC50 values are determined by linear regression analysis of log drug concentration versus percent inhibition.

[2] = system: VEGFR stimulated HUVEC proliferation; experiment: BRDU growth factor stimulated proliferation of HUVEC (VEGF stimulation); conditions: Homo sapiens, 72 h, 80 ng/ml VEGF, 3 days, BrdU incorporation
Procedure: (§2) BRDU Growth Factor Stimulated Proliferation of HUVEC
(§3) Exponentially growing human umbilical vein endothelial cells (HUVEC; Cat# CC-2519A, Cambrex, Walkersville, Md.) were seeded at two thousand cells/well into Collagen IV-coated 96 well plates (Cat#35-4429, Becton Dickinson, Bedford, Mass.) in assay media containing RPMI-1640 (Cat#11875-093, Gibco, Carlsbad, Calif.), 0.5% charcoal-stripped serum (Cat# SH30068.03, HyClone, Logan, Utah), and 1% N-2 supplement (Cat#17502-048, Gibco, Carlsbad, Calif.). Fours hours after incubating the plates at 37° C. in 5% CO2, the cells were treated with different concentrations of compound (diluted in assay media with a final DMSO concentration=0.1%) and then were immediately stimulated with 80 ng/ml of vascular endothelial growth factor (VEGF, Cat#100-20, PeproTech, Rocky Hill, N.J.) or 1.5 ng/ml of basic fibroblast growth factor (bFGF, Catt#100-18B, PeproTech, Rocky Hill, N.J.). Treated cells were incubated for 3 days at 37° C. in 5% CO2. DNA synthesis was measured via the incorporation of bromodeoxyuridine (BrdU) into newly synthesized DNA using the Amersham Cell Proliferation BioTrack ELISA system (Cat# RPN250, Amersham, Piscataway, N.J.). Diluted BrdU solution (20 μl of stock BrdU diluted 1:20 fold into assay media) was added to each well and incubation proceeded for 6 hours at 37° C. in 5% CO2. The media was removed and the cells were fixed according to the specifications of the Amersham assay kit for 30 minutes at room temperature. After removing the fixative, blocking buffer (supplied by Amersham kit; 200 μl/well) was added and the plates were stored at 4° C. overnight. The blocking buffer was aspirated and peroxidase-labeled anti-BrdU antibody (supplied by Amersham kit; 100 μl/well) was added and incubated for 3 hours at room temperature. The plates were washed three times with wash buffer (supplied by Amersham kit; 300 μl/well/wash). Immediately following the washes, 100 μl of the TMB-substrate was dispensed into each well and the plates were further incubated for 30 minutes at room temperature. The reaction was terminated by the addition of 25 μl of 1M H2SO4. Plates were read immediately at 450 nm using a SpectraMAX 250 spectrophotometer plate reader (Molecular Devices, Sunnyvale, Calif.). The software utilized was SoftMAX pro v.2.4.1.

HCT116 cells = experiment: Tumor cell proliferation (Alamar Blue), HCT116; conditions: Homo sapiens, HCT-116, 72 h
Procedure: as §1

[3] = system: FGFR stimulated HUVEC proliferation; experiment: BRDU growth factor stimulated proliferation of HUVEC (bFGF stimulation); conditions: Homo sapiens, 72 h, 1.5 ng/ml bFGF, 3 days, BrdU incorporation
Procedure: as §2, §3

| Compound | inhibition at 0.1 µM [1] | inhibition at 1 µM [1] | IC50 (MDA-MB-231 cells; bounds given in μM) | IC50 [2] | IC50 ([2]; bound given in μM) | IC50 (HCT116 cells; bounds given in μM) | IC50 [3] | IC50 (MDA-MB-231 cells) | IC50 (HCT116 cells) | IC50 ([3]; bound given in μM) |
| --- | --- | --- | --- | --- | --- | --- | --- | --- | --- | --- |
| COCc1cn2ncnc(N)c2c1-c1ccc(NC(=O)Nc2cc(C(F)(F)F)ccc2F)cc1 [Example 100, N-{4-[4-amino-6-(methoxymethyl)pyrrolo[2,1-f][1,2,4]triazin-5-yl]phenyl}-N′-[2-fluoro-5-(trifluoromethyl)phenyl]urea] | < 50% | > 50% | 1.5 to 5 µM | > 0.5 µM | < 2 µM | 1.5 to 5 µM |  |  |  |  |
| Nc1ncnn2cc(-c3cnco3)c(-c3ccc(NC(=O)Nc4cc(C(F)(F)F)ccc4F)cc3)c12 [Example 155, N-{4-[4-amino-6-(1,3-oxazol-5-yl)pyrrolo[2,1-f][1,2,4]triazin-5-yl]phenyl}-N′-[2-fluoro-5-(trifluoromethyl)phenyl]urea] |  |  |  | 0.01 to 0.1 µM |  |  | 0.1 to 0.5 µM | < 0.5 µM | < 0.5 µM |  |
| CC(=O)c1cn2ncnc(N)c2c1-c1ccc(NC(=O)Nc2cc(C(F)(F)F)ccc2F)cc1 [Example 223, N-[4-(6-acetyl-4-aminopyrrolo[2,1-f][1,2,4]triazin-5-yl)phenyl]-N′-[2-fluoro-5-(trifluoromethyl)phenyl]urea] |  |  | < 1.5 µM | 0.01 to 0.1 µM |  | < 1.5 µM | < 0.1 µM | > 0.5 µM | > 0.5 µM |  |
| N#CCc1cn2ncnc(N)c2c1-c1ccc(NC(=O)Nc2cc(C(F)(F)F)ccc2F)cc1 [Example 240, N-{4-[4-amino-6-(cyanomethyl)pyrrolo[2,1-f][1,2,4]triazin-5-yl]phenyl}-N′-[2-fluoro-5-(trifluoromethyl)phenyl]urea] |  |  | 1.5 to 5 µM | 0.1 to 0.5 µM |  | 1.5 to 5 µM | > 0.5 µM |  |  | < 1 µM |
| COCCOCc1cn2ncnc(N)c2c1-c1ccc(NC(=O)Nc2cc(C(F)(F)F)ccc2F)cc1 [Example 157, N-(4-{4-amino-6-[(2-methoxyethoxy)methyl]pyrrolo[2,1-f][1,2,4]triazin-5-yl}phenyl)-N′-[2-fluoro-5-(trifluoromethyl)phenyl]urea] |  |  | 1.5 to 5 µM | 0.01 to 0.1 µM |  | 1.5 to 5 µM | 0.1 to 0.5 µM |  |  |  |
| CC(C)(C)c1cc(NC(=O)Nc2ccc(-c3c(CO)cn4ncnc(N)c34)cc2)n(-c2ccc(F)cc2)n1 [Example 239, N-{4-[4-amino-6-(hydroxymethyl)pyrrolo[2,1-f][1,2,4]triazin-5-yl]phenyl}-N′-[3-tert-butyl-1-(4-fluorophenyl)-1H-pyrazol-5-yl]urea] |  |  | < 1.5 µM | 0.01 to 0.1 µM |  | < 1.5 µM | 0.1 to 0.5 µM | > 0.5 µM | > 0.5 µM |  |
| N#Cc1cn2ncnc(N)c2c1-c1ccc(NC(=O)Nc2ccc(F)c(C(F)(F)F)c2)cc1 [Example 151, N-[4-(4-amino-6-cyanopyrrolo[2,1-f][1,2,4]triazin-5-yl)phenyl]-N′-[4-fluoro-3-(trifluoromethyl)phenyl]urea] |  |  |  | 0.01 to 0.1 µM |  |  | < 0.1 µM |  |  |  |
| Nc1ncnn2cc(CN3CCOCC3)c(-c3ccc(NC(=O)Nc4cc(C(F)(F)F)ccc4F)cc3)c12 [Example 30, N-{4-[4-amino-6-(morpholin-4-ylmethyl)pyrrolo[2,1-f][1,2,4]triazin-5-yl]phenyl}-N′-[2-fluoro-5-(trifluoromethyl)phenyl]urea] | > 50% |  |  | 0.1 to 0.5 µM |  | 1.5 to 5 µM | 0.1 to 0.5 µM |  |  |  |
| Nc1ncnn2cc(-c3nnco3)c(-c3ccc(NC(=O)Nc4cc(C(F)(F)F)ccc4F)cc3)c12 [Example 163, N-{4-[4-amino-6-(1,3,4-oxadiazol-2-yl)pyrrolo[2,1-f][1,2,4]triazin-5-yl]phenyl}-N′-[2-fluoro-5-(trifluoromethyl)phenyl]urea] |  |  | 1.5 to 5 µM | > 0.5 µM | < 2 µM | 1.5 to 5 µM |  |  |  |  |
| Nc1ncnn2cc(C(=O)NCC(F)(F)F)c(-c3ccc(NC(=O)Nc4cc(C(F)(F)F)ccn4)cc3)c12 [Example 93, 4-amino-N-(2,2,2-trifluoroethyl)-5-{4-[({[4-(trifluoromethyl)pyridin-2-yl]amino}carbonyl)amino]phenyl}pyrrolo[2,1-f][1,2,4]triazine-6-carboxamide] | < 50% | > 50% | < 1.5 µM |  |  |  |  | > 0.5 µM | < 0.5 µM |  |
| N#Cc1cn2ncnc(N)c2c1-c1ccc(NC(=O)Nc2cccc(OC(F)(F)F)c2)cc1 [Example 152, N-[4-(4-amino-6-cyanopyrrolo[2,1-f][1,2,4]triazin-5-yl)phenyl]-N′-[3-(trifluoromethoxy)phenyl]urea] |  |  |  | 0.1 to 0.5 µM |  |  | 0.1 to 0.5 µM |  |  |  |
| COCc1cn2ncnc(N)c2c1-c1ccc(NC(=O)Nc2cc(C(F)(F)F)ccn2)cc1 [Example 101, N-{4-[4-amino-6-(methoxymethyl)pyrrolo[2,1-f][1,2,4]triazin-5-yl]phenyl}-N′-[4-(trifluoromethyl)pyridin-2-yl]urea] |  |  |  | < 0.01 µM |  |  | < 0.1 µM |  |  |  |
| Nc1ncnn2cc(-c3cnco3)c(-c3ccc(NC(=O)Nc4cc(C(F)(F)F)ccn4)cc3)c12 [Example 156, N-{4-[4-amino-6-(1,3-oxazol-5-yl)pyrrolo[2,1-f][1,2,4]triazin-5-yl]phenyl}-N′-[4-(trifluoromethyl)pyridin-2-yl]urea] |  |  |  |  |  | < 1.5 µM |  | < 0.5 µM | > 0.5 µM |  |
| Nc1ncnn2cc(-c3nc(CO)co3)c(-c3ccc(NC(=O)Nc4cc(C(F)(F)F)ccc4F)cc3)c12 [Example 241, N-(4-{4-amino-6-[4-(hydroxymethyl)-1,3-oxazol-2-yl]pyrrolo[2,1-f][1,2,4]triazin-5-yl}phenyl)-N′-[2-fluoro-5-(trifluoromethyl)phenyl]urea] |  |  | 1.5 to 5 µM |  |  | < 1.5 µM |  |  | > 0.5 µM |  |

— patent US7563791B2, “Pyrrolotriazine derivatives useful for treating hyper-proliferative disorders and diseases associated with angiogenesis” (Bayer Pharmaceuticals Corporation, priority 2004, dated 2009)
